The results in this text go back to patent US11008572B2, “Methods and compositions for modulating splicing” (SKYHAWK THERAPEUTICS, INC., priority 2017, dated 2021).

The first assay deals with A-673 cells. Kind of assay: Cell viability, crystal violet staining. The conditions noted are these: Homo sapiens, A673, cell viability, read-out: A-673 IC50 (nM) Cell viability. Format: cell-based. How it is done: To measure cell viability, cells were plated in 96-well plastic tissue culture plates at a density of 5×10^3 cells/well. Twenty-four hours after plating, cells were treated with various SMSMs. After 72 hours, the cell culture media were removed and plates were stained with […] of a solution containing 0.5% crystal violet and 25% methanol, rinsed with deionized water, dried overnight, and resuspended in […] citrate buffer (0.1 M sodium citrate in 50% ethanol) to assess plating efficiency. Intensity of crystal violet staining, assessed at 570 nm and quantified using a Vmax Kinetic Microplate Reader and Softmax software (Molecular Devices Corp., Menlo Park, Calif.), were directly proportional to cell number. Data were normalized to vehicle-treated cells and were presented as the mean±SE from representative experiments. SMSMs that are effective were determined for various cells lines.
A-673 cell viability […], splicing (IC50) and brain AUC/Plasma AUC of SMSMs were determined. As shown in the tables below SMSMs had high CNS exposure.
Consider `COc1cc(-c2ccc(-c3ccc(N(C)[C@H]4C[C@]5(C)CC[C@](C)(C4)N5)nn3)c(O)c2)ccn1` [compound 173, 2-(6-(((1R,3s,5S)-1,5-dimethyl-8-azabicyclo[3.2.1]octan-3-yl)(methyl)amino)pyridazin-3-yl)-5-(2-methoxypyridin-4-yl)phenol], for which the IC50 (commonly the concentration needed to halve the response being measured) was below 10 nM.

On to `CN(c1ccc(-c2ccc(-c3cn[nH]c3)cc2O)nn1)[C@@H]1C[C@]2(C)CC[C@](C)(C1)N2` [compound 150, 2-(6-(((1R,3r,5S)-1,5-dimethyl-8-azabicyclo[3.2.1]octan-3-yl)(methyl)amino)pyridazin-3-yl)-5-(1H-pyrazol-4-yl)phenol], for which the IC50 is above 1000 nM.

As to `CN(c1ccc(-c2cc3ccc(OCF)cc3cc2O)nn1)[C@@H]1C[C@H]2CC[C@@H](C1)N2` [compound 165, 3-(6-(((1R,3s,5S)-8-azabicyclo[3.2.1]octan-3-yl)(methyl)amino)pyridazin-3-yl)-7-(fluoromethoxy)naphthalen-2-ol], the concentration for half-maximal inhibition (IC50) lay in the range of 10 to 100 nM.

As to `COc1ccc2cc(-c3ccc(N(C)[C@@H]4C[C@H]5CC[C@@H](C4)N5)nn3)c(O)cc2c1` [compound 163, 3-(6-(((1R,3s,5S)-8-azabicyclo[3.2.1]octan-3-yl)(methyl)amino)pyridazin-3-yl)-7-methoxynaphthalen-2-ol], the IC50 is 101 to 250 nM.

Take `COc1cc(-c2cc(O)c(-c3ccc(N(C)[C@H]4C[C@]5(C)CC[C@](C)(C4)N5)nn3)cc2F)cnn1` [compound 213, 2-(6-(((1R,3s,5S)-1,5-dimethyl-8-azabicyclo[3.2.1]octan-3-yl)(methyl)amino)pyridazin-3-yl)-4-fluoro-5-(6-methoxypyridazin-4-yl)phenol]: the IC50 is below 10 nM.

Still in this assay, the particulars now being: Homo sapiens, A673, cell viability, read-out: A-673 IC50 (nM), Cell viability.
Regarding `CN(c1ccc(-c2cc(F)c(-c3ccn(C)c(=O)c3)cc2O)nn1)[C@H]1C[C@]2(C)CCC[C@](C)(C1)N2` [compound 265, 4-(4-(6-(((1R,3s,5S)-1,5-dimethyl-9-azabicyclo[3.3.1]nonan-3-yl)(methyl)amino)pyridazin-3-yl)-2-fluoro-5-hydroxyphenyl)-1-methylpyridin-2(1H)-one], the IC50 is below 10 nM.

`Cc1nnnn1-c1ccc(-c2ccc(N(C)[C@@H]3C[C@H]4CC[C@@H](C3)N4)nn2)c(O)c1` [compound 233, 2-(6-(((1R,3s,5S)-8-azabicyclo[3.2.1]octan-3-yl)(methyl)amino)pyridazin-3-yl)-5-(5-methyl-1H-tetrazol-1-yl)phenol]: the IC50 was above 1000 nM.

`Cc1nnc(-c2ccc(-c3ccc(O[C@@H]4C[C@H]5CC[C@@H](C4)N5)nn3)c(O)c2)o1` [compound 247, 2-(6-(((1R,3s,5S)-8-azabicyclo[3.2.1]octan-3-yl)oxy)pyridazin-3-yl)-5-(5-methyl-1,3,4-oxadiazol-2-yl)phenol]: the IC50 was above 1000 nM.

Regarding `C[C@]12CCC[C@](C)(C[C@@H](Oc3ccc(-c4ccc(-c5cn[nH]c5)cc4O)nn3)C1)N2` [compound 262, 2-(6-(((1R,3s,5S)-1,5-dimethyl-9-azabicyclo[3.3.1]nonan-3-yl)oxy)pyridazin-3-yl)-5-(1H-pyrazol-4-yl)phenol], the IC50 fell in the range of 101 to 250 nM.

On to `[2H]C([2H])([2H])c1ncc(-c2ccc(-c3ccc(N(C)[C@H]4C[C@]5(C)CC[C@](C)(C4)N5)nn3)c(O)c2)o1` [compound 303, 2-(6-(((1R,3s,5S)-1,5-dimethyl-8-azabicyclo[3.2.1]octan-3-yl)(methyl)amino)pyridazin-3-yl)-5-(2-(methyl-d3)oxazol-5-yl)phenol], for which the IC50 fell in the range of 10 to 100 nM.

Consider `Oc1cc(-n2cccn2)ccc1-c1ccc(O[C@@H]2C[C@H]3CC[C@@H](C2)N3)nn1` [compound 248, 2-(6-(((1R,3s,5S)-8-azabicyclo[3.2.1]octan-3-yl)oxy)pyridazin-3-yl)-5-(1H-pyrazol-1-yl)phenol], for which the IC50 was 501 to 1000 nM.

In the case of `Cc1ncn(-c2ccc(-c3ccc(N(C)[C@@H]4C[C@H]5CC[C@@H](C4)N5)nn3)c(O)c2)n1` [compound 244, 2-(6-(((1R,3s,5S)-8-azabicyclo[3.2.1]octan-3-yl)(methyl)amino)pyridazin-3-yl)-5-(3-methyl-1H-1,2,4-triazol-1-yl)phenol], the IC50 lay in the range of 101 to 250 nM.

As for `CN(c1ccc(-c2ccc(-c3cnn(C)c(=O)c3)cc2O)nn1)[C@H]1C[C@]2(C)CCC[C@](C)(C1)N2` [compound 260, 5-(4-(6-(((1R,3s,5S)-1,5-dimethyl-9-azabicyclo[3.3.1]nonan-3-yl)(methyl)amino)pyridazin-3-yl)-3-hydroxyphenyl)-2-methylpyridazin-3(2H)-one], the IC50 was below 10 nM.

In the case of `CN(c1ccc(-c2cc(F)c(-c3cn[nH]c3)cc2O)nn1)[C@@H]1C[C@H]2CCC[C@@H](C1)N2` [compound 271, 2-(6-(((1R,3s,5S)-9-azabicyclo[3.3.1]nonan-3-yl)(methyl)amino)pyridazin-3-yl)-4-fluoro-5-(1H-pyrazol-4-yl)phenol], the IC50 is below 10 nM.

In the case of `CN(c1ccc(-c2ccc(-n3cnnc3)cc2O)nn1)[C@@H]1C[C@H]2CC[C@@H](C1)N2` [compound 235, 2-(6-(((1R,3s,5S)-8-azabicyclo[3.2.1]octan-3-yl)(methyl)amino)pyridazin-3-yl)-5-(4H-1,2,4-triazol-4-yl)phenol], the IC50 was above 1000 nM.

Take `Cc1ncc(-c2ccc(-c3ccc(N(C)[C@@H]4C[C@H]5CCC[C@@H](C4)N5)nn3)c(O)c2)o1` [compound 273, 2-(6-(((1R,3s,5S)-9-azabicyclo[3.3.1]nonan-3-yl)(methyl)amino)pyridazin-3-yl)-5-(2-methyloxazol-5-yl)phenol]: the IC50 was below 10 nM.

The same assay, now with this note: Homo sapiens, A673, cell viability, read-out: A-673 IC50 (nM), cell viability.
In the case of `CN(c1ccc(-c2ccc(-c3ccnc(OC(F)F)c3)cc2O)nn1)[C@H]1C[C@]2(C)CCC[C@](C)(C1)N2` [compound 308, 5-(2-(difluoromethoxy)pyridin-4-yl)-2-(6-(((1R,3s,5S)-1,5-dimethyl-9-azabicyclo[3.3.1]nonan-3-yl)(methyl)amino)pyridazin-3-yl)phenol], the IC50 fell in the range of 501 to 1000 nM.

Turning to `CN(c1ccc(-c2ccc(-c3cc[nH]c(=O)c3)cc2O)nn1)[C@H]1C[C@]2(C)CCC[C@](C)(C1)N2` [compound 306, 4-(4-(6-(((1R,3s,5S)-1,5-dimethyl-9-azabicyclo[3.3.1]nonan-3-yl)(methyl)amino)pyridazin-3-yl)-3-hydroxyphenyl)pyridin-2(1H)-one], the IC50 was below 10 nM.

Still in this assay, the particulars now being: Homo sapiens, A673, read-out: A-673 cell viability (IC50).
On to `CN(c1ccc(-c2ccc(-c3cc[nH]c(=O)c3)cc2O)nn1)[C@H]1C[C@]2(C)CCC[C@](C)(C1)N2` [compound 306, 4-(4-(6-(((1R,3s,5S)-1,5-dimethyl-9-azabicyclo[3.3.1]nonan-3-yl)(methyl)amino)pyridazin-3-yl)-3-hydroxyphenyl)pyridin-2(1H)-one], for which the IC50 was below 3 nM.

The next assay relates to FOXM1^A2 mRNA and FOXM1^BC mRNA. Kind of assay: Splicing assay (FOXM1), qPCR of isoform mRNAs. Format: cell-based. Conditions: FoxM1 A mRNA increase (exon excluded); read-out: Splice EC50 (nM) FoxM1 A mRNA increase (exon excluded). On the procedure: Various cells lines were treated with the SMSMs described herein. RNA was then isolated, cDNA synthesized, qPCR performed and the levels of various mRNA targets of the SMSMs were determined. In some instances, RNA was isolated, cDNA synthesized, qPCR performed and the levels of mRNA isoforms in the various cell samples were determined.
On the day of the experiment, a 96-well plate was seeded with the cell lines of interest. The cells were diluted with full growth media to a concentration of 2.0×10^5 cells/mL and 100 μL of cells were added to each well (20,000 cells per well). The cells were treated with a compound immediately after plating.
The compounds were then added to the cell plate using the HP compound dispenser. In the initial experiment, a top concentration of 10 μM and an 8 point 4-fold dilution scheme was used. The stock compounds were made at a concentration of 5 mM, and the DMSO concentration was set to 0.2%. DMSO was used to normalize all the compound-containing wells and the untreated cells.
The treated cells were incubated at 37° C. in a 5% CO2 incubator for the desired amount of time. Plates were placed in a plastic bag with a wet paper towel to prevent evaporation.
RNA was isolated using the Cells to CT kit (ThermoFisher, AM1728). The cells were washed once with 100 μL cold PBS. 50 μL of lysis buffer was added to each well/tube (49.5 μL lysis buffer+0.5 μL DNase I per well/tube). The lysis reaction was mixed and incubated at room temperature for 5 minutes. 5 μL of stop solution was added directly into each cell lysis reaction and mixed by pipetting up and down 5 times. The plates/tubes were incubated at room temperature for 2 minutes then placed on ice if the cDNA synthesis was to be performed immediately. Otherwise, the plates/tubes were stored at −80° C. cDNA synthesis reactions were then performed. Reverse Transcription (RT) Master mix was prepared according to the table below.
40 μL RT master mix was added to PCR tubes or plate wells. 10 μL of RNA was added to each tube/well. The RT thermal cycler program was then run and tubes or plate wells were incubated at 37° C. for 1 hour, then at 95° C. for 5 minutes to deactivate the enzyme.
The qPCR was performed using a QuantStudio 6 instrument (ThermoFisher) and the following cycling conditions and according to the tables below. All samples and standards were analyzed in triplicate. Cycle 1: 2 minutes at 50° C. Cycle 2: 10 minutes at 95° C. Cycle 3 (repeat 40 times): 15 seconds at 95° C., 1 minute at 60° C.
The determined isoform 2and isoform 1quantities were then be used to determine the isoform 2: […] at the various compound concentrations. The PPIA quantities were used in the normalization to account of cell proliferation effects of the compounds.
The dilution necessary to make the top standard is calculated. A top concentration 200,000,000 copies/μL of the stock plasmid was prepared in TE buffer. A series of 10-fold dilutions, also in TE, were then made. A total of 5 μL of each standard was used in a qPCR well to generate samples containing 109 copies, […], 10^7copies, 10^6 copies, 10^5 copies, 10^4 copies, 10^3 copies, 10^2 copies, 10^1copies, and 0 copies.
An assay to measure the FOXM1^A2 mRNA and FOXM1^BC mRNA, or MADD^WT (isoform 4) mRNA and MADD^Ex16 (isoform 3) mRNA, or MAPTau^4R mRNA and MAPTau^3R mRNA simultaneously in cell wells was performed. The RNA values were measured relative to DMSO control and also included a housekeeping gene, PPIA to ensure data was consistent. The mRNA values were measured after 24 hours of incubation with the SMSM compounds.
(Quantitative PCR measures a nucleic acid by following its amplification.)
As to “2-(6-(((1R,3s,5S)-1,5-dimethyl-8-azabicyclo[3.2.1]octan-3-yl)(methyl)amino)pyridazin-3-yl)-5-(4-methyl-1H-imidazol-1-yl)phenol [compound 177]”, the EC50 – broadly, the concentration that produces a half-maximal response – is below 10 nM.

The same assay, now with this note: FoxM1 BC mRNA decrease (exon included); read-out: Splice IC50 (nM) FoxM1 BC mRNA decrease (exon included).
Consider “2-(6-(((1R,3s,5S)-1,5-dimethyl-8-azabicyclo[3.2.1]octan-3-yl)(methyl)amino)pyridazin-3-yl)-5-(4-methyl-1H-imidazol-1-yl)phenol [compound 177]”, for which the IC50 is below 10 nM.
